As a reminder, the IC50 is the concentration that gives 50% inhibition.

From patent US5750782A, “Nitroaniline derivatives and their use as anti-tumour agents” (priority 1996, dated 1998) come the findings set out here.

The test system of one assay is UV4 cells. The assay is described as follows: Clonogenic assay, UV4 cells (CT10), aerobic and hypoxic. It counts as cell-based. The note with it: for CT10 ratio (air/N2): UV4 cells, aerobic CT10/hypoxic CT10; for CT10 (UV4): air, concentration x time to reduce UV4 cell survival to 10% of control. The source says: The product (in μM-hr) of the drug concentration times the exposure time to reduce cell survival to 10% of control values in the clonogenic assay.
Ratio of CT10 values after exposure of UV4 cells as detailed above under either aerobic (air) or hypoxic (N2) conditions (=aerobic CT10 /hypoxic CT10).

The subject of the next assay is UV4 cell line. The assay is described as follows: Ratio of IC50 values against UV4 cell line in presence and absence of E. coli nitroreductase enzyme NTR-2. It counts as cell-based. The note with it: air, ratio of IC50 in presence and absence of E. coli nitroreductase NTR-2, 1080 min. The procedure: (§1) Growth inhibition studies were performed as described in detail elsewhere (W.R. Wilson, R.F. Anderson and W.A Denny. J Med. Chem., 1989, 32, 23; G.J. Finlay, B.C. Baguley and W.R. Wilson. Anal Biochem., 1984, 139, 172.), using 200 viable AA8 or 300 viable UV4 cells plus 5000 lethally-irradiated AA8 feeder cells per well in 96-well tissue culture dishes. AA8 and UV4 cells were maintained in logarithmic-phase growth in […] tissue culture flasks with subculture twice weekly by trypsinization. The growth medium was antibiotic-free α-MEM with 10% v/v heat-inactivated ([…], 40 min) fetal calf serum. Doubling times were approximately 14h for AA8 and 15h for UV4 cells.
Ratio of IC50 values for a compound after exposure as detailed above against the UV4 cell line in the presence and absence of the E. coli nitroreductase enzyme NTR-2.

In another assay the test system is AA8 and UV4 cell lines. The assay is described as follows: Ratio of IC50 values against AA8 and UV4 cell lines (HFair). Type of assay: cell-based. To be noted: 18 h exposure. The protocol:
as §1
Ratio of IC50 values for a compound after exposure as detailed above against AA8 and UV4 cell lines (HF=IC50 (AA8)/IC50 (UV4)).

A further assay has as its system AA8. The assay is described as follows: Growth inhibition (IC50), AA8 cells, aerobic. It counts as cell-based. The note with it: 18 h exposure. The procedure: as §1
For the next assay, the system named is UV4. The assay is described as follows: Growth inhibition (IC50), UV4 cells, aerobic. Type of assay: cell-based. To be noted: air, 18 h exposure. The procedure:
as §1

A further assay concerns V79 cells. The note with it: +Nitroreductase alone (2 μg/ml); 2 h, 37° C.

Description for V79 cells: The nitroreductase concentration was 2 μg/ml and NADH was used as a co-factor. The initial cell density was 2×10^5 /mL.

Regarding `NC(=O)c1cc(N(CCBr)CCBr)c([N+](=O)[O-])cc1[N+](=O)[O-]` [Compound 2, 5-[N,N-bis(2-bromoethyl)amino]-2,4-dinitrobenzamide], in the assay on UV4 cells, the “CT10 ratio (air/N2)” value is 20 and the “CT10 (UV4)” value is 160 μM-h. For the same molecule, the “HF (NR-2)” value in the assay on UV4 cell line is 32.3. Besides, the “HF (air) = IC50 (AA8)/IC50 (UV4)” value in the assay on AA8 and UV4 cell lines worked out at 7.5. Moreover, in the assay on AA8 (air), the IC50 came out at 57 µM. The molecule further registered an IC50 in the assay on UV4 of 10.9 µM.
In the case of `NC(=O)c1cc(N(CCI)CCI)c([N+](=O)[O-])cc1[N+](=O)[O-]` [Compound 3, 5-[N,N-bis(2-iodoethyl)amino]-2,4-dinitrobenzamide], in the assay with UV4 cells, the “CT10 ratio (air/N2)” value is listed as 42 and the “CT10 (UV4)” value stood at 170 μM-h. Moreover, the “HF (NR-2)” value in the assay on UV4 cell line came to 73.8. In the assay with AA8 and UV4 cell lines, the “HF (air) = IC50 (AA8)/IC50 (UV4)” value is recorded as 2.6. The same molecule returned an IC50 in the assay on AA8 (air) of 34 µM. This molecule also registered an IC50 with UV4 of 15 µM.
Take `CS(=O)(=O)OCCN(CCOS(C)(=O)=O)c1cc(C(N)=O)c([N+](=O)[O-])cc1[N+](=O)[O-]` [Compound 4, 5-[N,N-bis(2-methanesulfonoxyethyl)amino]-2,4-dinitrobenzamide]: in the assay on UV4 cells, the “CT10 ratio (air/N2)” value came to 17 and the “CT10 (UV4)” value is listed as 1200 μM-h. Also, the “HF (NR-2)” value in the assay with UV4 cell line is 10.0. In the assay on AA8 (Cricetulus griseus, CHO-AA8, air), this molecule had a half-maximal inhibitory concentration (IC50) greater than 200 µM. Further, the IC50 in the assay on UV4 (Cricetulus griseus) is 99 µM.
As for `O=C(O)c1cc(N(CCCl)CCCl)c([N+](=O)[O-])cc1[N+](=O)[O-]` [Compound 6, 5-[N,N-bis(2-chloroethyl)amino]-2,4-dinitrobenzoicacid], the “CT10 ratio (air/N2)” value with UV4 cells was greater than 2. Further, the “CT10 (UV4)” value in the assay with UV4 cells is recorded as greater than 30000 μM-h. Besides, the “HF (NR-2)” value with UV4 cell line was 0.76. Further, in the assay with AA8 and UV4 cell lines, the “HF (air) = IC50 (AA8)/IC50 (UV4)” value stood at 1.5. For the same molecule, the results for the IC50 in the assay on AA8 (air) and in the assay on UV4 were 10600 µM and 317 µM, respectively.
With `N#Cc1cc(N(CCCl)CCCl)c([N+](=O)[O-])cc1[N+](=O)[O-]` [Compound 7, 5-[N,N-bis(2-chloroethyl)aminol]-2,4-dinitrobenzonitrile], in the assay on UV4 cells, the “CT10 ratio (air/N2)” value turned out to be 8.5 and the “CT10 (UV4)” value was found to be 86 μM-h. Further, in the assay with UV4 cell line, the “HF (NR-2)” value came to 9.2. The “HF (air) = IC50 (AA8)/IC50 (UV4)” value with AA8 and UV4 cell lines is recorded as 6.8. Further, half-maximal inhibition in the assay on AA8 (air) (IC50) was put at 24 µM. Further, the IC50 in the assay with UV4 worked out at 2.3 µM.
Regarding `CN(C)C(=O)c1cc(N(CCCl)CCCl)c([N+](=O)[O-])cc1[N+](=O)[O-]` [Compound 9, N,N-dimethyl [N,N-bis(2-chloroethyl)amino]-2,4-dinitrobenzainide], in the assay with UV4 cells, the “CT10 ratio (air/N2)” value was greater than 20 and the “CT10 (UV4)” value was greater than 3500 μM-h. In the assay with AA8 and UV4 cell lines, the “HF (air) = IC50 (AA8)/IC50 (UV4)” value came to 1.4. In the assay on AA8 (air), this molecule gave an IC50 of 310 µM.
In the case of `O=C(c1cc(N(CCCl)CCCl)c([N+](=O)[O-])cc1[N+](=O)[O-])N1CCOCC1` [Compound 10, N-morpholino [N,N-bis(2-chloroethyl)amino]-2,4-dinitrobenzamiide], in the assay on UV4 cells, the “CT10 ratio (air/N2)” value was determined as 1.6 and the “CT10 (UV4)” value turned out to be 156 μM-h. Also, the “HF (air) = IC50 (AA8)/IC50 (UV4)” value in the assay on AA8 and UV4 cell lines is recorded as 23. In the assay on AA8 (air), this molecule displayed an IC50 of 264 µM.
`O=C(NCCN1CCOCC1)c1cc(N(CCCl)CCCl)c([N+](=O)[O-])cc1[N+](=O)[O-]` [Compound 12, N-[2-(morpholino)ethyl][N,N-bis(2-chloroethyl)amino]-2,4-dinitrobenzainide]: in the assay with UV4 cells, the “CT10 ratio (air/N2)” value was 45 and the “CT10 (UV4)” value was determined as 3700 μM-h. The “HF (air) = IC50 (AA8)/IC50 (UV4)” value in the assay with AA8 and UV4 cell lines amounted to 3.0. The IC50 in the assay on AA8 (air) came to 920 µM.
On to `NC(=S)c1cc(N(CCCl)CCCl)c([N+](=O)[O-])cc1[N+](=O)[O-]` [Compound 13, 5-[N,N-bis(2-chloroethyl)amino]-2,4-dinitrothiobenzamide], for which, in the assay on UV4 cells, the “CT10 ratio (air/N2)” value is reported as greater than 3 and the “CT10 (UV4)” value is on record as greater than 60 μM-h. Besides, the “HF (air) = IC50 (AA8)/IC50 (UV4)” value with AA8 and UV4 cell lines is given as greater than 2. For the same molecule, the IC50 in the assay with AA8 (air) was greater than 25 µM.
Regarding `C[N+](C)([O-])CCNC(=O)c1cc(N(CCCl)CCCl)c([N+](=O)[O-])cc1[N+](=O)[O-]` [Compound 14, N-(N^1,N^1-dimethylaminoethyl) [N,N-bis(2-chloroethyl)amino]-2,4-dinitrobenzamide N^1-oxide], in the assay on UV4 cells, the “CT10 ratio (air/N2)” value is on record as less than 10 and the “CT10 (UV4)” value is on record as less than 14400 μM-h. The “HF (air) = IC50 (AA8)/IC50 (UV4)” value with AA8 and UV4 cell lines is on record as 1.7. This molecule had an IC50 in the assay with AA8 (air) of 7300 µM.
Regarding `O=C(O)CCNC(=O)c1cc(N(CCCl)CCCl)c([N+](=O)[O-])cc1[N+](=O)[O-]` [Compound 15, N-(2-carboxyethyl) 5-[N,N-bis(2-chloroethyl)amino]-2,4-dinitrobenzamide], in the assay on UV4 cells, the “CT10 ratio (air/N2)” value was 2 and the “CT10 (UV4)” value was 14000 μM-h. Also, in the assay on AA8 and UV4 cell lines, the “HF (air) = IC50 (AA8)/IC50 (UV4)” value stood at 1.1. The molecule further displayed an IC50 in the assay on AA8 (air) of 6100 µM.
Take `O=C(NCC(O)CO)c1cc(N(CCCl)CCCl)c([N+](=O)[O-])cc1[N+](=O)[O-]` (centres unmarked) [Compound 17, N-(2,3-dihydroxypropyl)5-[N,N-bis(2-chloroethyl)amino]-2,4-dinitrobenzarnide]: in the assay with UV4 cells, the “CT10 ratio (air/N2)” value came out at 14 and the “CT10 (UV4)” value is 3340 μM-h. For the same molecule, in the assay with AA8 and UV4 cell lines, the “HF (air) = IC50 (AA8)/IC50 (UV4)” value came out at 3.2. This molecule returned an IC50 in the assay with AA8 (air) of 1790 µM.
Take `NS(=O)(=O)c1cc(N(CCCl)CCCl)c([N+](=O)[O-])cc1[N+](=O)[O-]` [Compound 18, 5-[N,N-bis(2-chloroethyl)amino]-2,4-dinitrobenzenesulfonamide]: the IC50 in the assay with AA8 (air) was 3 µM.
For `NC(=O)c1cc([N+](=O)[O-])cc([N+](=O)[O-])c1N(CCCl)CCCl` [Compound 19, 2-[N,N-bis(2-chloroethyl)amino]-3,5-dinitrobenzamide], in the assay with UV4 cells, the “CT10 ratio (air/N2)” value is on record as greater than 5 and the “CT10 (UV4)” value was greater than 300 μM-h. The “HF (air) = IC50 (AA8)/IC50 (UV4)” value with AA8 and UV4 cell lines is listed as “ca. 3”. The molecule further yielded an IC50 in the assay on AA8 (air) greater than 100 µM.
On to `CN(C)CCNC(=O)c1cc([N+](=O)[O-])cc([N+](=O)[O-])c1N(CCCl)CCCl` [Compound 20, N-(N,N-dimethylaminoethyl) 2-[N,N-bis(2-chloroethyl)amino]-3,5-dinitrobenzamide], for which, in the assay on UV4 cells, the “CT10 ratio (air/N2)” value worked out at 36 and the “CT10 (UV4)” value was 1200 μM-h. The “HF (air) = IC50 (AA8)/IC50 (UV4)” value with AA8 and UV4 cell lines stood at 14. In the assay on AA8 (air), this molecule had an IC50 of 150 µM.
The like results for `NC(=O)c1c([N+](=O)[O-])ccc(N(CCCl)CCCl)c1[N+](=O)[O-]` [Compound 21, 3-[N,N-bis(2-chloroethyl)amino]-2,6-dinitrobenzamide] were, in that order, greater than 3, greater than 300 μM-h, greater than 2 and greater than 240 µM.
With `CN(C)CCNC(=O)c1c([N+](=O)[O-])ccc(N(CCCl)CCCl)c1[N+](=O)[O-]` [Compound 22, N-(N,N-dimethylaminoethyl) 3-[N,N-bis(2-chloroethyl)amino]-2,6-dinitrobenzamide], in the assay with UV4 cells, the “CT10 ratio (air/N2)” value stood at 130 and the “CT10 (UV4)” value was 3600 μM-h. Further, in the assay with AA8 and UV4 cell lines, the “HF (air) = IC50 (AA8)/IC50 (UV4)” value was determined as 3.2. This molecule also gave an IC50 with AA8 (air) of 426 µM.
`NC(=O)c1cc([N+](=O)[O-])c(N(CCCl)CCCl)c([N+](=O)[O-])c1` [Compound 23, 4-[N,N-bis(2-chloroethyl)amino]-3,5-dinitrobenzamide]: in the assay with UV4 cells, the “CT10 ratio (air/N2)” value was greater than 1 and the “CT10 (UV4)” value was greater than 450 μM-h. For the same molecule, in the assay on AA8 and UV4 cell lines, the “HF (air) = IC50 (AA8)/IC50 (UV4)” value turned out to be 1.4. In the assay on AA8 (air), this molecule yielded an IC50 of 97 µM.
For `CN(C)CCNC(=O)c1cc([N+](=O)[O-])c(N(CCCl)CCCl)c([N+](=O)[O-])c1` [Compound 24, N-(N,N-dimethylaminoethyl) 4-[N,N-bis(2-chloroethyl)amino]-3,5-dinitrobenzamide], in that order: greater than 1, greater than 273 μM-h, 2.0 and 62 µM.

B1: Nitroreductase: E. coli nitroreductase (protein, UniProt P38489 1-217, looked up)
Oxygen-insensitive NAD(P)H …: MDIISVALKRHSTKAFDASKKLTPEQAEQIKTLLQYSPSSTNSQPWHFIVASTEEGKARVAKSAAGNYVFNERKMLDASHVVVFCAKTAMDDVWLKLVVDQEDADGRFATPEAKAANDKGRKFFADMHRKDLHDDAEWMAKQVYLNVGNFLLGVAALGLDAVPIEGFDAAILDAEFGLKEKGYTSLVVVPVGHHSVEDFNATLPKSRLPQNITLTEV
As to B1, the “% SURVIVAL” value in the assay with V79 cells is recorded as 94%.
